# Results as given in US12570642B2, “GLP-IR modulating compounds” (Gilead Sciences, Inc., priority 2021, dated 2026).
# Target: GLP-1R (Homo sapiens, UniProt P43220)
# Test: GLP-1R Activation - cAMP Assay
# Format: cell-based
# Settings: each compound run on one of the two cAMP assays (Assay 1 or Assay 2, not specified)
# Description: GLP-1R Activation—cAMP Assay 1
# GLP-1R activation by compounds of the present disclosure were quantified by measuring cAMP increase in CHO cells stably expressing GLP-1R (MultiSpan product #C1267-1a). The cells were harvested and plated in growth medium (DMEM/F-12 (Corning product #10-090-CV) supplemented with 10% FBS (HyClone product #SH30071-03), penicillin/streptomycin (Corning product #30-002CI) and 10 μg/ml puromycin (Gibco product #A11138-03)) at 1,000 cells/well in a 384-well plate (Greiner product #781080). The cells were then incubated overnight at 37° C., 5% CO2. The next day, the medium was removed and the cells were washed with DPBS (Corning product #21-031-CM) before adding the assay medium (HBSS, Corning product #21-023-CV) with 20 mM Hepes (Gibco product #15630-080) and 0.1% BSA (Rockland Immunochemicals product #BSA-1000)). Following the medium change, the cells were incubated for 1 hour at 37° C., 5% CO2. The tested GLP-1 compound was added to the cells in a 10-point dose response followed by a 30 minutes incubation at 37° C., 5% CO2. cAMP concentration increase was then detected using Cisbio's cAMP Gs Dynamic Kit (product #62AM4PEC) according to the manufacturer's protocol. The response was plotted against the log of the agonist concentration and fitted to a sigmoidal equation to determine the EC50.
# [1] = cAMP increase in CHO cells stably expressing GLP-1R
# Chain of GLP-1R (P43220 24-463): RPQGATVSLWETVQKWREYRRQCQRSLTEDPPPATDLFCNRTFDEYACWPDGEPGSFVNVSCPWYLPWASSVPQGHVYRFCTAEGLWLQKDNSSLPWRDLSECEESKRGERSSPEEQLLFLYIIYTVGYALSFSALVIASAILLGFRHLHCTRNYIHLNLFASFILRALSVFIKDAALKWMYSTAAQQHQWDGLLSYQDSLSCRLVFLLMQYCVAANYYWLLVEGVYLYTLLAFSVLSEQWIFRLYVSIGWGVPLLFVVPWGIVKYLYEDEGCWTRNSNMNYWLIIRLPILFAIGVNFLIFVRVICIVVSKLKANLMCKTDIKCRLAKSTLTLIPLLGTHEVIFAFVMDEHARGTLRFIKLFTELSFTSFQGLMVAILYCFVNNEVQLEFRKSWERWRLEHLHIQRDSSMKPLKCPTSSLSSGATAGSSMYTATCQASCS
Structure (SMILES),EC50 [1] [nM],EC50 ([…]) [nM]
"COc1cc(Cl)ncc1COc1cccc(-c2cc(F)c(Cc3nc4ccc(C(=O)O)cc4n3C3COCC3(C)C)cc2F)n1 (centres unmarked) [Example 294, 2-(4-(6-((6-chloro-4-methoxypyridin-3-yl)methoxy)pyridin-2-yl)-2,5-difluorobenzyl)-1-(4,4-dimethyltetrahydrofuran-3-yl)-1H-benzo[d]imidazole-6-carboxylic acid]",0.021,–
"CC1(C)COC[C@H]1n1c(Cc2cc(F)c(-c3cccc(OCc4ccc(Cl)c(Cl)c4)n3)cc2F)nc2ccc(C(=O)O)cc21 [Example 393, (S)-2-(4-(6-((3,4-dichlorobenzyl)oxy)pyridin-2-yl)-2,5-difluorobenzyl)-1-(4,4-dimethyltetrahydrofuran-3-yl)-1H-benzo[d]imidazole-6-carboxylic acid]",0.652,–
"CC1(C)COC[C@H]1n1c(Cn2cc(Cl)c(-c3cccc(OCc4ccc(Cl)cc4F)n3)cc2=O)nc2c(F)cc(C(=O)O)cc21 [Example 327, (S)-2-((5′-chloro-6-((4-chloro-2-fluorobenzyl)oxy)-2′-oxo-[2,4′-bipyridin]-1′(2′H)-yl)methyl)-1-(4,4-dimethyltetrahydrofuran-3-yl)-4-fluoro-1H-benzo[d]imidazole-6-carboxylic acid]",0.266,–
"CC1(C)COC[C@H]1n1c(Cc2c(F)cc(-c3ccc(F)c(OCc4cnc(-n5ccnn5)cc4Cl)n3)c(F)c2F)nc2ccc(C(=O)O)cc21 [Example 159, (S)-2-(4-(6-((4-chloro-6-(1H-1,2,3-triazol-1-yl)pyridin-3-yl)methoxy)-5-fluoropyridin-2-yl)-2,3,6-trifluorobenzyl)-1-(4,4-dimethyltetrahydrofuran-3-yl)-1H-benzo[d]imidazole-6-carboxylic Acid]",0.043,–
"Cc1cc(Cc2nc3c(F)cc(C(=O)O)cc3n2[C@@H]2COCC2(C)C)c(F)cc1-c1cccc(OCc2ccc(C#N)cc2F)n1 [Example 208, (S)-2-(4-(6-((4-cyano-2-fluorobenzyl)oxy)pyridin-2-yl)-2-fluoro-5-methylbenzyl)-1-(4,4-dimethyltetrahydrofuran-3-yl)-4-fluoro-1H-benzo[d]imidazole-6-carboxylic acid]",0.249,–
"CC1(C)COC[C@H]1n1c(Cc2c(F)cc(-c3cccc(OCc4ccc(Cl)cc4F)n3)cc2F)nc2ccc(C(=O)O)cc21 [Example 302, (S)-2-(4-(6-((4-chloro-2-fluorobenzyl)oxy)pyridin-2-yl)-2,6-difluorobenzyl)-1-(4,4-dimethyltetrahydrofuran-3-yl)-1H-benzo[d]imidazole-6-carboxylic acid]",0.181,–
"COc1cc(Cl)ncc1COc1nc(-c2cc(F)c(Cc3nc4c(F)cc(C(=O)O)cc4n3[C@@H]3COCC3(C)C)c(F)c2F)ccc1F [Example 339, (S)-2-(4-(6-((6-chloro-4-methoxypyridin-3-yl)methoxy)-5-fluoropyridin-2-yl)-2,3,6-trifluorobenzyl)-1-(4,4-dimethyltetrahydrofuran-3-yl)-4-fluoro-1H-benzo[d]imidazole-6-carboxylic acid]",0.013,–
COCCn1c(Cc2cc(F)c(-c3cccc(OCc4cnc(C(F)F)cn4)n3)cc2F)nc2ccc(C(=O)O)cc21 [Example 94],23.9,–
"COC[C@@]1(C)COCC1n1c(Cc2cc(F)c(-c3cccc(OCc4ccc(Cl)cc4F)n3)cc2F)nc2ccc(C(=O)O)cc21 (single isomer, unassigned) [Example 546]",0.706,–
"CC1(C)COC[C@H]1n1c(Cc2c(F)cc(-c3ccc(F)c(OCc4ccc(C#N)cc4F)n3)cc2F)nc2ccc(C(=O)O)cc21 [Example 322, (S)-2-(4-(6-((4-cyano-2-fluorobenzyl)oxy)-5-fluoropyridin-2-yl)-2,6-difluorobenzyl)-1-(4,4-dimethyltetrahydrofuran-3-yl)-1H-benzo[d]imidazole-6-carboxylic acid]",0.346,–
"CC[C@@H]1OCC[C@H]1n1c(Cc2cc(F)c(-c3cccc(OCc4ccc(C#N)cc4F)n3)cc2F)nc2ccc(C(=O)O)cc21 [Example 197, 2-(4-(6-((4-cyano-2-fluorobenzyl)oxy)pyridin-2-yl)-2,5-difluorobenzyl)-1-((2S,3R)-2-ethyltetrahydrofuran-3-yl)-1H-benzo[d]imidazole-6-carboxylic acid]",6.62,–
"CO[C@H]1CN(C(C)=O)C[C@@H]1n1c(Cc2cc(F)c(-c3cccc(OCc4ccc(C#N)cc4F)n3)cc2F)nc2ccc(C(=O)O)cc21 [Example 16, 1-((3S,4S)-1-acetyl-4-methoxypyrrolidin-3-yl)-2-(4-(6-((4-cyano-2-fluorobenzyl)oxy)pyridin-2-yl)-2,5-difluorobenzyl)-1H-benzo[d]imidazole-6-carboxylic Acid]",–,4800
"CC1(C)COC[C@H]1n1c(Cc2cc(F)c(-c3ccc(F)c(OCc4ccc(C#N)cc4)n3)cc2F)nc2c(F)cc(C(=O)O)cc21 [Example 325, (S)-2-(4-(6-((4-cyanobenzyl)oxy)-5-fluoropyridin-2-yl)-2,5-difluorobenzyl)-1-(4,4-dimethyltetrahydrofuran-3-yl)-4-fluoro-1H-benzo[d]imidazole-6-carboxylic acid]",0.155,–
"COC(=O)N1Cc2ccc(COc3cccc(-c4cc(F)c(Cc5nc6c(F)cc(C(=O)O)cc6n5[C@@H]5COCC5(C)C)cc4F)n3)cc2C1 [Example 263, (S)-2-(2,5-difluoro-4-(6-((2-(methoxycarbonyl)isoindolin-5-yl)methoxy)pyridin-2-yl)benzyl)-1-(4,4-dimethyltetrahydrofuran-3-yl)-4-fluoro-1H-benzo[d]imidazole-6-carboxylic acid]",0.709,–
"COc1cc(Cl)ncc1COc1nc(-c2cc(F)c(Cc3nc4c(F)cc(C(=O)O)cc4n3[C@@H]3COCC3(C)C)cc2F)ccc1F [Example 340, (S)-2-(4-(6-((6-chloro-4-methoxypyridin-3-yl)methoxy)-5-fluoropyridin-2-yl)-2,5-difluorobenzyl)-1-(4,4-dimethyltetrahydrofuran-3-yl)-4-fluoro-1H-benzo[d]imidazole-6-carboxylic acid]",0.005,–
"CC(C)COCCn1c(Cc2cc(F)c(-c3cccc(OCc4ccc(Cl)cc4F)n3)cc2F)nc2ccc(C(=O)O)cc21 [Example 566, 2-(4-(6-((4-chloro-2-fluorobenzyl)oxy)pyridin-2-yl)-2,5-difluorobenzyl)-1-(2-isobutoxyethyl)-1H-benzo[d]imidazole-6-carboxylic acid]",4.09,–
"CC1(C)COC[C@H]1n1c(Cc2cc(F)c(-c3cccc(OCc4c(F)cccc4F)n3)cc2F)nc2ccc(C(=O)O)cc21 [Example 476, (S)-2-(4-(6-((2,6-difluorobenzyl)oxy)pyridin-2-yl)-2,5-difluorobenzyl)-1-(4,4-dimethyltetrahydrofuran-3-yl)-1H-benzo[d]imidazole-6-carboxylic acid]",0.614,–
"CC1(C)COC[C@H]1n1c(Cc2cc(F)c(-c3cccc(OCc4ccc(C(F)(F)F)cc4C#N)n3)cc2F)nc2ccc(C(=O)O)cc21 [Example 413, (S)-2-(4-(6-((2-cyano-4-(trifluoromethyl)benzyl)oxy)pyridin-2-yl)-2,5-difluorobenzyl)-1-(4,4-dimethyltetrahydrofuran-3-yl)-1H-benzo[d]imidazole-6-carboxylic acid]",0.281,–
"CC(C)OCCn1c(Cc2cc(F)c(-c3cccc(OCc4cnc(-n5ccnn5)cc4Cl)n3)cc2F)nc2ccc(C(=O)O)cc21 [Example 561, 2-(4-(6-((4-chloro-6-(1H-1,2,3-triazol-1-yl)pyridin-3-yl)methoxy)pyridin-2-yl)-2,5-difluorobenzyl)-1-(2-isopropoxyethyl)-1H-benzo[d]imidazole-6-carboxylic acid]",0.558,–
"COCCn1c(Cc2cc(F)c(-c3cccc(OCc4ccc(-n5ccnn5)cc4F)n3)cc2F)nc2ccc(C(=O)O)c(F)c21 [Example 374, 2-(2,5-difluoro-4-(6-((2-fluoro-4-(1H-1,2,3-triazol-1-yl)benzyl)oxy)pyridin-2-yl)benzyl)-7-fluoro-1-(2-methoxyethyl)-1H-benzo[d]imidazole-6-carboxylic acid]",0.571,–
"N#Cc1ccc(COc2cccc(-c3cc(F)c(Cc4nc5ccc(C(=O)O)cc5n4[C@@H]4COC[C@@H]4CO)cc3F)n2)c(F)c1 (single isomer, unassigned) [Example 435]",0.06,–
"CC1(C)COC[C@H]1n1c(Cc2cc(F)c(-c3cccc(OCc4ccc(C#N)c(F)c4F)n3)cc2F)nc2ccc(C(=O)O)cc21 [Example 492, (S)-2-(4-(6-((4-cyano-2,3-difluorobenzyl)oxy)pyridin-2-yl)-2,5-difluorobenzyl)-1-(4,4-dimethyltetrahydrofuran-3-yl)-1H-benzo[d]imidazole-6-carboxylic acid]",0.191,–
"N#Cc1ccc(COc2cccc(-c3cc(F)c(Cc4nc5ccc(C(=O)O)cc5n4[C@@H]4COC[C@H]4C(F)F)cc3F)n2)c(F)c1 (racemic) [Example 269, 2-(4-(6-((4-cyano-2-fluorobenzyl)oxy)pyridin-2-yl)-2,5-difluorobenzyl)-1-((3S,4S)-4-(difluoromethyl)tetrahydrofuran-3-yl)-1H-benzo[d]imidazole-6-carboxylic acid]",0.164,–
